Data set [1] concerns Uromyces appendiculatus. The data set can be described thus: Example W: preventative in vivo test with Uromyces appendiculatus (bean rust). Particulars: 500 ppm, evaluation 10 days after inoculation. As for the experimental part:
The active compounds tested are prepared by homogenization in a mixture of acetone/Tween/DMSO and then diluted with water to the desired active compound concentration. Bean plants (cultivar “Saxa”), sown in a 50/50 peat/pozzolana soil substrate and cultivated at 24° C., are treated at the 2-leaf stage (height 9 cm) by spraying with the active compound, prepared as above. As a control, plants are treated with the mixture of acetone/Tween/DMSO/water without the active compound. After 24 hours, the plants are inoculated by spraying the leaves with an aqueous suspension of Uromyces appendiculatus spores.

Another data set relates to Puccinia recondita. Put plainly: Example T: preventative in vivo test with Puccinia recondita (brown rust on wheat). Particulars: 500 ppm, evaluation 10 days after inoculation. As for the experimental part:
The active compounds tested are prepared by homogenization in a mixture of acetone/Tween/DMSO and then diluted with water to the desired active compound concentration. Wheat plants (cultivar “Scipion”), sown in a 50/50 peat/pozzolana soil substrate and cultivated at 22° C. (12 h)/20° C. (12 h), are treated at the 1-leaf stage (height 10 cm) by spraying with the active compound, prepared as above. As a control, plants are treated with the mixture of acetone/Tween/DMSO/water without the active compound. After 24 hours, the plants are inoculated by spraying the leaves with an aqueous suspension of Puccinia recondita spores.

In data set [2] the test system is Sphaerotheca fuliginea. Put plainly: Example V: preventative in vivo test with Sphaerotheca fuliginea (powdery mildew on cucumber). Particulars: 500 ppm, evaluation 12 days after inoculation. As for the experimental part: The active compounds tested are prepared by homogenization in a mixture of acetone/Tween/DMSO and then diluted with water to the desired active compound concentration. Cucumber plants (cultivar “Vert petit de Paris”), sown in a 50/50 peat/pozzolana soil substrate and cultivated at 24° C., are treated at the Z11 cotyledon stage by spraying with the active compound, prepared as above. As a control, plants are treated with the mixture of acetone/Tween/DMSO/water without the active compound. After 24 hours, the plants are inoculated by spraying the leaves with an aqueous suspension of Sphaerotheca fuliginea spores. The inoculated cucumber plants are incubated at about 20° C./25° C. and a relative atmospheric humidity of 60/70%.

The subject of data set [3] is Septoria tritici. Put plainly: Example U: preventative in vivo test with Septoria tritici (leaf blotch disease on wheat). Particulars: 500 ppm, evaluation 21 to 28 days after inoculation. As for the experimental part: The active compounds tested are prepared by homogenization in a mixture of acetone/Tween/DMSO and then diluted with water to the desired active compound concentration. Wheat plants (cultivar “Scipion”), sown in a 50/50 peat/pozzolana soil substrate and cultivated at 22° C. (12 h)/20° C. (12 h), are treated at the 1-leaf stage (height 10 cm) by spraying with the active compound, prepared as above. As a control, plants are treated with the mixture of acetone/Tween/DMSO/water without the active compound. After 24 hours, the plants are inoculated by spraying the leaves with an aqueous suspension of cryogenically preserved Septoria tritici spores.

The nature of data set [4]: log P by HPLC on reversed-phase columns (EEC directive 79/831 Annex V.A8). The format is physicochemical. As for the experimental part: The log P values were measured according to EEC directive 79/831 Annex V.A8 by HPLC (High Performance Liquid Chromatography) on reversed-phase columns, using the methods below: […] Calibration was carried out using unbranched alkan-2-ones (having from 3 to 16 carbon atoms) with known log P values (the log P values were determined by the retention times using linear interpolation between two successive alkanones). The lambda maX values were determined in the maxima of the chromatographic signals using the UV spectra from 200 nm to 400 nm.

The test system of a further data set is Phytophthora infestans. Format: in vivo. Particulars: tomato, preventative, 500 ppm, evaluation 5 days after inoculation.
For data set [5], the system named is Sphaerotheca fuliginea. Put plainly: Example B: Sphaerotheca test (cucumber)/protective. The format is in vivo. As to conditions: protective, 500 ppm, evaluation 7 days after inoculation. As for the experimental part: Solvent: 49 parts by weight of N,N-dimethylformamide Emulsifier: 1 part by weight of alkylaryl polyglycol ether To produce a suitable preparation of active compound, 1 part by weight of active compound is mixed with the stated amounts of solvent and emulsifier, and the concentrate is diluted with water to the desired concentration. To test for protective activity, young cucumber plants are sprayed with the preparation of active compound at the stated application rate. 1 day after the treatment, the plants are inoculated with a spore suspension of Sphaerotheca fuliginea. The plants are then placed in a greenhouse at 70% relative air humidity and a temperature of 23° C.

For another data set, the system named is Pyricularia oryzae. Format: in vivo. Particulars: rice, protective, 500 ppm, evaluation 7 days after inoculation.
Data set [6] has as its system Septoria tritici. Put plainly: Example I: Septoria tritici test (wheat)/protective. Format: in vivo. As to conditions: protective, 500 ppm, evaluation 21 days after inoculation. As for the experimental part:
Solvent: 49 parts by weight of N,N-dimethylacetamide Emulsifier: 1 part by weight of alkylaryl polyglycol ether To produce a suitable preparation of active compound, 1 part by weight of active compound is mixed with the stated amounts of solvent and emulsifier, and the concentrate is diluted with water to the desired concentration. To test for protective activity, young plants are sprayed with the preparation of active compound at the stated application rate. After the spray coating has dried on, the plants are sprayed with a spore suspension of Septoria tritici.

In data set [7] the test system is Uromyces appendiculatus. Put plainly: Example E: Uromyces test (bean)/protective. As to conditions: protective, 10 ppm, evaluation 10 days after inoculation. Format: in vivo. As for the experimental part: Solvents: 24.5 parts by weight of acetone • 24.5 parts by weight of dimethylacetamide Emulsifier: 1 part by weight of alkylaryl polyglycol ether To produce a suitable preparation of active compound, 1 part by weight of active compound is mixed with the stated amounts of solvent and emulsifier, and the concentrate is diluted with water to the desired concentration. To test for protective activity, young plants are sprayed with the preparation of active compound at the stated application rate. […] The plants are then placed in a greenhouse at about 21° C. and a relative atmospheric humidity of about 90%.

Molecules are shown by their SMILES. Read-outs that look alike come from different tables or passages of the source. Marks after values point to notes of the source that are not given here.

The text below walks through data of patent publication US9095136B2, “2-IODO imidazole-derivatives” (BAYER INTELLECTUAL PROPERTY GMBH, priority 2011, dated 2015).

For `Fc1cc(Cl)ccc1C1(Cn2ccnc2I)OC1c1ccccc1Cl` (mixture of isomers) [Example 9], the Efficacy % in the data set on Uromyces appendiculatus [1] came out at 93%; in the data set on Puccinia recondita, 86%; in the data set on Sphaerotheca fuliginea [2] it was 100%; with Septoria tritici [3] it was 100%.
Consider `Fc1ccc(C2(Cn3ccnc3I)OC2c2ccccc2Cl)c(Cl)c1` (mixture of isomers) [Example 15], for which the Efficacy % amounted to 100% with Uromyces appendiculatus [1], 100% in the data set on Puccinia recondita, 98% with Sphaerotheca fuliginea [2] and 86% in the data set on Septoria tritici [3].
As for `Fc1ccc([C@]2(Cn3ccnc3I)O[C@@H]2c2ccccc2Cl)c(F)c1` (relative stereo) [Example 13, rel-1-{[(2R,3R)-3-(2-chlorophenyl)-2-(2,4-difluorophenyl)oxiran-2-yl]methyl}-2-iodo-1H-imidazole], the chromatographic logP was 2.86 in [4] (pH 2.7, log P(HCOOH)) and 2.86 in data set [4] (pH 2.7, logP). The same molecule had an Efficacy % with Phytophthora infestans of 98%.
On to `CC(=Cc1ccccc1Cl)c1ccc(F)cc1F` [1-[1-(2-chlorophenyl)prop-1-en-2-yl]-2,4-difluorobenzene], for which the chromatographic logP in data set [4] (pH 2.7, HPLC/MS, major diastereoisomer of the mixture, read-out: log P(HCOOH)) stood at 5.05; in data set [4] (pH 2.7, HPLC/MS, minor diastereoisomer of the mixture, read-out: log P(HCOOH)), 5.34.
Turning to `Fc1ccc(C(=Cc2ccccc2Cl)CBr)c(F)c1` [1-[3-bromo-1-(2-chlorophenyl)prop-1-en-2-yl]-2,4-difluorobenzene], the “log P(HCOOH)” value in [4] (pH 2.7) was 5.25. In [4] (pH 2.7, log P(HCOOH)), the chromatographic logP worked out at 4.8.
For `Fc1ccc(C2(CBr)OC2c2ccccc2Cl)c(F)c1` (stereo not drawn) [2-(bromomethyl)-3-(2-chlorophenyl)-2-(2,4-difluorophenyl)oxirane] the same measures were 5.00 and 4.61.
As for `OC(Cn1ccnc1I)(c1ccc(Cl)cc1)C1(Oc2ccc(F)cc2)CC1` (stereo not drawn) [Example 3], the logP stood at 2.55 in data set [4] (pH 2.7) and 3.55 in data set [4] (pH 7.8).
In the case of `OC(Cn1ccnc1I)(c1ccc(F)cc1F)C1(Oc2ccc(F)cc2)CC1` (stereo not drawn) [Example 5], the Eff. % is reported as 88% in the data set with Sphaerotheca fuliginea [5] and 95% in the data set on Pyricularia oryzae.
As to `Fc1ccc(C2(Cn3ccnc3I)OC2c2ccccc2Cl)cc1` (stereo not drawn) [Example 7], in data set [4] (pH 2.7), the logP is 2.73^[a].
With `Fc1cc(Cl)ccc1C1(Cn2ccnc2I)OC1c1ccccc1Cl` (stereo not drawn) [Example 10], in data set [4] (pH 2.7), the logP is 3.23^[a]. Also, the figures for the Efficacy % in the data set on Sphaerotheca fuliginea [2] and in the data set with Septoria tritici [3] were 98% and 96%, respectively.
As to `Fc1ccc(C2(Cn3ccnc3I)OC2c2ccccc2Cl)c(F)c1` (stereo not drawn) [Example 12, 1-{[3-(2-chlorophenyl)-2-(2,4-difluorophenyl)oxiran-2-yl]methyl}-2-iodo-1H-imidazole], the Efficacy % was 99% with Uromyces appendiculatus [1]; 93% in the data set on Puccinia recondita; 100% in the data set on Sphaerotheca fuliginea [2]; 88% in the data set with Phytophthora infestans; 100% with Septoria tritici [3]. For the same molecule, the “log P(HCOOH)” value in data set [4] (pH 2.7) is 3.31. The chromatographic logP in [4] (pH 2.7, log P(HCOOH)) is 2.92; in [4] (pH 2.7, logP), 2.92. This molecule also gave an Eff. % with Septoria tritici [6] of 71%.
Take `Fc1ccc(C2(Cn3ccnc3I)OC2c2ccccc2Cl)c(Cl)c1` (stereo not drawn) [Example 16]: the logP in data set [4] (pH 2.7) is 3.13^[a].
As to `Fc1ccc(C2(Cn3ccnc3I)OC2c2ccccc2Cl)c(Cl)c1` (stereo not drawn) [Example 17], the Efficacy % in the data set with Uromyces appendiculatus [1] is 100%; in the data set on Puccinia recondita, 100%; in the data set with Sphaerotheca fuliginea [2], 100%; with Septoria tritici [3], 97%. Moreover, in data set [4] (pH 2.7), the lipophilicity (logP) is 3.68^[a]. The same molecule registered an Eff. % in the data set on Uromyces appendiculatus [7] of 75%.
`OC(Cc1c(Cl)cccc1I)(Cn1ccnc1I)C1(Cl)CC1` (stereo not drawn) [Example 18]: the Efficacy % in the data set with Uromyces appendiculatus [1] and in the data set with Sphaerotheca fuliginea [2] was 100% in each case. The logP is 3.04 in data set [4] (pH 2.7) and 4 in data set [4] (pH 7.8).
